From publication PMC10227015, “From a drug repositioning to a structure-based drug design approach to tackle acute lymphoblastic leukemia” (Nature Communications, 2023)
Like-named read-outs stand apart in the source and are kept apart here.

Experiments:
[1] = system: CCRF-CEM-CRISPR-sgRNA-dCK− cell line; assay: Proliferation of CCRF-CEM CRISPR-Cas9 cell line deficient for dCK; type: cell-based, human; settings: dT 200 µM, dC 1 µM
Procedure: CCFR-CEM cells (obtained from O. Hermine laboratory, Paris, France) were grown at 37 °C in RPMI 1640 with L-glutamine, supplemented with 10% heat-inactivated fetal calf serum. The experiments were carried out on 96-well plates under the following conditions: 14,000 cells per well, RPMI 1640 culture medium supplemented with 10% heat-inactivated fetal calf serum, 200 μM of dT, 1 μM of dC and a range of dilutions of each compound ranging from 40 μM to 10 pM, depending on the activity of the compounds (final 0.2% DMSO). Cells were incubated for 72 h under these different conditions and finally, incubated with 10 µl/well of CellTiter-Blue reagent (Promega) for 4 h at 37 °C. The amount of reduced dye formed by metabolically active cells was quantified by its fluorescence measured at 560 nm (excitation) and 590 nm (emission) in a microplate reader (CLARIOstar, BMG Labtech). A blank well without cells was used as a background control. Each experiment was performed at least three times (with technical triplicates) and data are presented as the mean ± SD.
Stable CCRF-CEM-CRISPR-sgRNA-dCK^− cell line was established by lentiviral transduction using purified lentiviral particles (Horizon Discovery) and blasticidin selection (10 µg/ml). […]

[2] = system: NOD-SCID-IL2Rγc null (NSG) mice; assay: In vivo toxicity in NSG mice, 2 weeks, with and without dT; settings: mouse models, 80 mg/kg twice/day
Procedure: To evaluate the in vivo toxicity selected compounds were injected by intraperitoneal (IP) route to 7 weeks-old male Swiss mice (n = 2) at 10, 20, 40, 50, or 80 mg/kg by unique injection. […] Compounds were administered in their hydrochloride salt forms. Mice were then observed closely for the next one hour, then every hour for 8 h. Observations were continued for 72 h for signs of pain or toxicity such as change in the behavior and in the activity in the cage (decreased locomotion) or change in the appearance (curved back, eyes half-closed, bristle hair, hips hollowed out). In vivo toxicity of compound OR0642 at 40 and 80 mg/kg was also assessed in the NOD-SCID-IL2Rγc null (NSG) mice model for 2 weeks in the presence and absence of dT to confirm the safety of the compound. […]. Blood samples were collected and spun at 10,000 × g prior to collecting the plasma supernatants. All plasma samples were frozen at −80 °C before sample processing. 13 μl of each plasma sample was mixed with 33 μl of acetonitrile to precipitate proteins and extract the compound. […] Supernatants were transferred to a microplate to be analyzed by LC–MS/MS. All samples were analyzed with a UHPLC coupled to a Shimadzu LC-MS 8030 triple quadrupole. The solutions of a standard range, prepared with plasma from untreated mice, were analyzed in the same series of injections.

[3] = system: 97 kinases; assay: Kinome profiling (KINOMEscan, whole panel); type: binding, human; settings: OR0642 1 µM
Procedure: Kinome profiling was provided by Eurofins DiscoverX Corporation. Determination of the % control activity for 97 kinases was obtained through an active site-directed competition binding assay that quantitatively measure interactions between compound and kinases. OR0642 was used at 1 μM.
Supplementary Table 3. KINOMEscan™ Profiling of OR0642. Competition binding assay to quantitatively measure interactions between OR0642 (1 µM) and 97 human kinases and disease relevant mutant variants.
Target Gene Symbol %Control Target Gene Symbol %Control […]

[4] = system: PDX UPNT730; assay: Ex vivo testing on PDX samples (viability, flow cytometry, 72 h), with or without OP9-DL1 monolayer; type: cell-based, human; settings: for viability at 12 µM / viability at 37 µM / viability at 111 µM / viability at 333 µM / viability at 1000 µM / viability at 3000 µM: Homo sapiens, read-out: Cell viability, Mean (% viab); for viability at 12 µM: dT 12 µM; for viability at 37 µM: dT 37 µM; for viability at 111 µM: dT 111 µM; for viability at 333 µM: dT 333 µM; for viability at 1000 µM: dT 1000 µM; for viability at 3000 µM: dT 3000 µM
Source text: Bone marrow-infiltrating blasts from terminally mice bearing PDX as stated above were collected as established before. Extensive analysis (immunophenotype and molecular analysis) of matched primary and PDX samples used in the study are shown in Supplementary Table 7, showing that they remain stable. Briefly, after euthanasia, bone marrows from tibiae, hips, femurs, and vertebrae were isolated and blasts collected for subsequent ex vivo experiments. All samples used contained ≥90% blasts as determined by flow cytometry. For the cytotoxic evaluation of OR0642, blasts were then stained with CellTraceTM Violet (CTV, Thermo Fisher Scientific, C34557) prior seeding at 10,000 cells into 96-well plates under normal conditions or pre-plated with OP9-DL1 cells. Cells were cultured in RPMI 1640 supplemented with 20% fetal bovine serum, 50 µg/ml streptomycin, 50 UI penicillin, 4 mM L-glutamine, and a cocktail of human cytokines as previously established (50 ng/ml human stem cell factor, 20 ng/ml hFLT3-L, 10 ng/ml hIL-7 and 20 nM insulin (Miltenyi Biotec))[28]. […] Rescue by dC supplementation (1 µM) was also evaluated. OR0642 was then tested alone, or combined with dT or dT + dC at two concentrations (0.25 and 0.5 µM). Cell viability was evaluated by flow cytometry 72 h post-treatment. Proliferation indexes were calculated using the detection of CTV in the control replicates (DMSO) and the proliferation modeling tool of FlowJo™ Software 10.7.1 (BD Life Sciences). A control peak of undivided CTV-stained cells was systematically used to set the undivided fraction.

SMILES	effect on cell proliferation [1]	in vivo tolerance [2]	kinome-wide profiling [3]	viability at 12 µM ([4]; UPNT730 + OP9-DL1)	viability at 37 µM ([4]; UPNT730 + OP9-DL1)	viability at 111 µM ([4]; UPNT730 + OP9-DL1)	viability at 333 µM ([4]; UPNT730 + OP9-DL1)	viability at 1000 µM ([4]; UPNT730 + OP9-DL1)	viability at 3000 µM ([4]; UPNT730 + OP9-DL1)	viability at 12 µM ([4]; UPNT730)	viability at 37 µM ([4]; UPNT730)	viability at 111 µM ([4]; UPNT730)	viability at 333 µM ([4]; UPNT730)	viability at 1000 µM ([4]; UPNT730)	viability at 3000 µM ([4]; UPNT730)	Response at dT100 µM ([4]; PDX 730, dT 100 µM)	sensitivity ([4]; proliferative conditions (OP9-DL1 monolayer))
CCCN(c1nc(-c2nc(N)cc(N)n2)cs1)c1cc(-c2ccc(S(=O)(=O)N3CCN(C)CC3)cc2C(F)(F)F)ccc1C [OR0642]	did not affect cell proliferation	well tolerated	none of the 97 kinases tested was inhibited	–	–	–	–	–	–	–	–	–	–	–	–	–	–
Cc1cn([C@H]2C[C@H](O)[C@@H](CO)O2)c(=O)[nH]c1=O [dT, thymidine]	–	–	–	100%	96.3%	86.4%	82%	72.2%	72.9%	100%	106%	107%	109%	102%	105%	17	sensitive
